Source: PMC6244206, “C-Terminal Residue of Ultrashort Peptides Impacts on Molecular Self-Assembly, Hydrogelation, and Interaction with Small-Molecule Drugs” (Scientific Reports, 2018)
Several values for one entry are separate records, joined by “and”; a condition that tells them apart may be missing. Identical values can stand only once.

Assays:
[1] = Small-molecule drug elution studies from peptide hydrogels; assay type: physicochemical; conditions: for Drug loading capacity in the peptide hydrogels: SMD 2 mM in peptide hydrogels 20 mM (peptides 1A and 1B)
Procedure: We compared the SMD elution profiles of the peptide hydrogels with the theoretical maximal amount of SMD that would diffuse from the hydrogel into the extra volume of PBS if there were no obstruction to diffusion.
The peptides were weighed out in 4 mL-vials, after which phosphate-buffered saline (PBS) containing the small-molecule drug (SMD final concentration = 2 mM) was added to a final volume of 0.30 mL each. The peptide-SMD-PBS mixtures were then shaken and sonicated for 10 s, after which the mixtures were allowed to anneal for 24 h. After that, 0.75 mL of fresh PBS was slowly added with a pipettor to the surface of the hydrogel so as not to disturb the surface of the gel. After 24 h at 25 °C, the PBS was carefully extracted with a pipettor for UV/vis analysis; a fresh volume (0.75 mL) of PBS was then replaced. This process was repeated as many times as the number of pre-determined elution samples. The extracted PBS was transferred into a cuvette (pathlength = 10 mm) and analysed with an Agilent 8543 UV/visible spectrometer for the presence of the SMD. […] A control experiment was set up for each peptide hydrogel, for which no drug was added. This is to account for absorption at the respective wavelengths due to eluted peptide. The elution profile of each peptide is compared with a theoretical maximal elution profile, viz. the theoretical maximal amount of SMD that would diffuse from the hydrogel into the extra volume of PBS if there were no obstruction to diffusion. The cumulative eluted percentage of SMD at each point is given by: [1 − (1/3.5)^n] 100%, where n is the number of elution.

[2] = cited from earlier work
[3] = Solubility of peptides in phosphate-buffered saline to form clear solutions; assay type: physicochemical; conditions: pH 7.4
Procedure: The peptides were prepared via standard solid-phase peptide synthesis. The purification of all peptides was straightforward, except for peptide 1D. […] As a result, it frequently precipitated on the reversed-phase column during HPLC (high performance liquid chromatography) purification with a gradient of acetonitrile/water, leading to poor yields (<10%). The solubilities of peptides 1 and 2 in phosphate-buffered saline (PBS; pH 7.4) to form clear solutions were then tested; peptides 1A and 2A were also assessed as references. […] As Table 1 indicates, the hexapeptides dissolve to a lower extent than the tripeptides. This is reflective of the greater propensity of the hexapeptides to self-assemble and aggregate due to their longer hydrophobic backbone. In addition, peptides with lysine and arginine dissolve to a greater extent due to their charged side chains at pH 7.4.

[4] = Zeta potential measurements of peptide fibrils; assay type: physicochemical; conditions: in water, peptide 10 mM, 25 °C; mean of triplicate measurements
Procedure: The zeta potential of the peptide fibrils was measured with an Anton Paar Litesizer 500 Particle Sizer. An omega zeta potential cuvette was utilised for the measurements, which was kept at a constant temperature of 25 °C. Triplicate measurements of each peptide sample were made at concentrations of 10 mM in water.

[5] = Gelation studies of peptides in PBS; assay type: physicochemical
Procedure: Although peptide 1C could form a gel at 40 mg/mL (30 mM), the hydrogel formed was opaque and inhomogeneous; this is a big contrast to peptide 1A that forms a clear and transparent hydrogel (Fig. 3a). […] On the other hand, perhaps unsurprisingly, the tripeptides generally require higher concentrations to gel. Peptide 2A was previously reported to require a higher peptide concentration to gel than peptide 1A[50]. This has also been observed for peptide 2B, in which 30 mM is required (c.f. 15 mM for peptide 2A). […] As with peptide 1D, peptide 2D could not gel and only precipitated. […] When the hydrophilic components are dominant, the enhanced solubility reduces the driving forces for self-assembly. Consequently, hydrogelation is observed at markedly higher concentrations. Such a balance of hydrophilicity/hydrophobicity has been exploited (via enzymatic control) for the formulation of hydrogels[52],[53].
All peptides were prepared via fluoren-9-ylmethoxycarbonyl (Fmoc)-based solid phase peptide synthesis and purified via reversed-phase high performance liquid chromatography-mass spectrometry (HPLC-MS) on an Agilent 6130 Quadrupole LC/MS system. Peptide hydrogels were prepared by weighing out the appropriate peptide mass in 2 mL-vials. After the requisite volume of phosphate-buffered saline (PBS) was added, the peptide-water mixture was shaken and sonicated for 10 s. […]

[6] = Rheological studies of the peptide hydrogels; assay type: physicochemical; conditions: hydrogels 40 mg/mL in PBS, oscillatory strain sweep, 6.28 rad/s, 25 °C, triplicates
Procedure: Viscoelastic properties of the hydrogels were assessed at 25 °C with an ARES-G2 rheometer (TA Instruments, Piscataway, NJ) in the 25.0 mm-diameter titanium parallel plate geometry and a gap distance of 0.8 mm. For oscillatory frequency sweep studies, the plate rotation was varied between 0.1–100 rad/s at a constant strain of 0.1%. For oscillatory strain sweep studies, the strain was varied between 0.001–100% at a constant frequency of 6.28 rad/s. Each experiment was carried out in triplicates. This procedure was also previously described by us[88].

[7] = PBS; previously reported; cited from earlier work
Procedure: Although peptide 1C could form a gel at 40 mg/mL (30 mM), the hydrogel formed was opaque and inhomogeneous; this is a big contrast to peptide 1A that forms a clear and transparent hydrogel (Fig. 3a). […] This is a big contrast to peptides 1E and 2E, which were previously reported t ...

Compound | Drug loading capacity in the peptide hydrogels [1] | pKa [2] | Soluble peptide concentration [3] | Zeta potential [4] | Appearance of hydrogel at 40 mg/mL ([5]; 40 mg/mL in PBS) | Status of gel ([5]; phosphate-buffered saline, pH 7.4, at minimal gelation concentration) | Yield stress / strain at which the hydrogel breaks down [6] | Hydrogel formation with doxorubicin ([1]; doxorubicin 2 mM in PBS) | Encapsulated doxorubicin eluted from peptide hydrogel ([1]; doxorubicin 2 mM in peptide hydrogel 20 mM, PBS pH 7.4, 25 °C, repeated elutions with 0.75 mL PBS, UV/vis 480 nm, n = 3) | Hydrogel formation with methotrexate ([1]; methotrexate 2 mM in PBS) | Hydrogel formation with naltrexone ([1]; naltrexone 2 mM in PBS) | Gelation concentration [7]
CN(Cc1cnc2nc(N)nc(N)c2n1)c1ccc(C(=O)N[C@@H](CCC(=O)O)C(=O)O)cc1 [methotrexate, reference compound] | 0.89 mg/g |  |  |  |  |  |  |  |  |  |  | 
O=C1CC[C@@]2(O)[C@H]3Cc4ccc(O)c5c4[C@@]2(CCN3CC2CC2)[C@H]1O5 [naltrexone, reference compound] | 0.67 mg/g | ~ 8.1 |  |  |  |  |  |  |  |  |  | 
acetylated Leu-Ile-Val-Ala-Gly-Lys-NH2 [Peptide 1A] |  |  | 3 mg/mL | +33.40 ± 0.17 mV | transparent hydrogels | Clear, transparent | 3% | formed stable hydrogels | 40% | could do so with methotrexate (with some coagulation within the hydrogel) | formed stable hydrogels | 10 mg/mL and 6 mM
